Measurements published in article PMC12455572, “Amphipathic Proline-Rich Cell Penetrating Peptides for Targeting Mitochondria” (ACS Chemical Biology, 2025).
“Also recorded” adds a separate entry of the source. Where a SMILES comes first, the peptide text is derived from it. [ ]: non-standard residue; d: D form. The star is where a group is joined. 5FAM = O=C1OC2(c3ccc(O)cc3Oc3cc(O)ccc32)c2ccc(C(=O)*)cc21; Pro(cis-4-guanidino) = NC(N)=N[C@@H]1CN[C@H](C(=O)O)C1; Cha = N[C@@H](CC1CCCCC1)C(=O)O; Ahx = NCCCCCC(=O)O

Columns and labels:
[1] = tested on: MCF-7 cells; test: Flow cytometry (FACS): overall cellular uptake; format: cell-based; details: for Fold higher cellular uptake with additional C-terminal hydrophobic residue (FACS): 1 h, 37 °C, versus the peptide without the C-terminal Cha/ChPro; for Total cellular fluorescence after the 24 h rest compared with directly after 1 h incubation (FACS): MCF-7, 1 h incubation at 37 °C, then 24 h rest in DMEM + 10% FBS
Experimental: MCF-7 cells were seeded in a 24-well plate at 150′000 cells/well in DMEM (1 mL, 10% FCS), and allowed to adhere overnight. The medium was removed, the cells were washed with PBS (250 μL, 1x) and incubated with the peptide solution at 20 μM, 10 μM, 5 μM or 2.5 μM in medium (200 μL, 1% FCS) for 1 h at 37 °C. The medium was removed, and the cells were washed with PBS (250 μL, 2x). Trypsin (100 μL, 0.05%) was added, and the cells were incubated at 37 °C for 5 min. D-PBS with Mg^2+ and Ca^2+ (300 μL, 4 °C) was added, the cells were resuspended and centrifuged for 5 min at 0.4 rcf. The supernatant was carefully removed, and the cells were resuspended in a solution of PBS containing 1.5 μM PI and 2 mM EDTA (400 μL at 4 °C). The cells were added to FACS tubes and kept on ice prior to analysis. Each sample contained 10′000 cells and was analyzed in triplicate. Each experiment was repeated three times.
For the experiments that included the 24 h rest period, the peptides were incubated as described above. After the 1 h incubation time, the cells were washed with PBS (250 μL, 2x), DMEM (250 μL, 10% FBS) was added, and the cells were kept at 37 °C, 5% CO2 for 24 h. For a direct comparison of the effect of a 24 h rest period, another set of peptides was incubated with the cells for 1 h. Then, cells of both sets of experiments (1 h followed by the 24 h rest period versus 1 h incubation) were washed with PBS, treated with trypsin, and prepared for FACS analysis as described above. Each sample was run in triplicate and was repeated three times. […]
MCF-7 cells were obtained from the American Type Culture Collection (ATCC).
The cells were grown in a humidified 5% CO2 atmosphere at 37 °C Dulbecco’s Modified Eagle’s Medium (DMEM), high glucose, GlutaMAXTM (4 mM) supplemented with L-glutamine (4 mM), gentamicin (10 mg/L), […]
Fluorescence-Activated Cell Sorting (FACS) analyzer
On a BD LSRFortessa flow cytometer, CF was excited at 488 nm and monitored with 530/30 bandpass, PI was excited at 561 nm and monitored with a 610/20 bandpass. Mean fluorescence values were determined from the histograms using FlowJo 10.0.6 software while dead cells were removed according to PI staining.
Below is an example, CF-Ahx-(ChaZZ)3, of gating, set on untreated cells and propagated to all samples.
Each sample was run in triplicate, and each experiment was repeated at least three times.
(1 picture or pasted object on this page, not shown here)

[2] = tested on: MCF-7 cells; test: Colocalization of peptide with MitoTracker (Manders' coefficients from confocal images); format: cell-based; details: MCF-7, after 24 h rest versus after 1 h incubation, Figure S7B; 10 µM for (ChaZZ)3, otherwise concentration not stated
Experimental: MCF-7 cells were seeded in a 8-μwell Ibidi plate at 25′000 cells/well in DMEM (100 μL, 10% FCS) and allowed to adhere overnight. The medium was removed, the cells were washed with PBS (200 μL, 1x) and incubated with the peptide solution at 20 μM, 10 μM, 5 μM or 2.5 μM in DMEM (200 μL, 1% FCS) for 1 h at 37 °C. The medium was removed, and the cells were washed with PBS (200 μL, 2x). MitoTracker Deep Red was distributed at 20 nM in DMEM (200 μL, 1% FBS) and the cells were incubated at 37 °C for 25 min. The medium was removed, and the cells were washed with PBS (200 μL, 2x). Hoechst333342 was distributed at 2 μM in DMEM (200 μL, 1% FBS) and the cells were incubated at 37 °C for 5 min. The cells were washed with PBS (200 μL, 2x), and FluoroBrite medium (200 μL) was added. The live cells were monitored on the confocal microscope at 37 °C, 5% CO2.
For the cells subjected to a 24 h rest period, the FluoroBrite medium was exchanged for DMEM (200 μL, 10% FBS) after the initial imaging, and the cells were kept in this medium for 24 h. The culture medium was then exchanged for FluoroBrite DMEM, and the cells were imaged again.
Fluorescence images of cells were collected using a Nikon Eclipse T1 (inverse) microscope equipped with a Yokogawa Confocal Scanner Unit CSU-W1-T2, containing a spinning disk (50 µm). The microscope is equipped with two EMCCD Andor iXon Ultra cameras. Emission in the blue channel (405 nm) was filtered with a 450/50 bandpass filter, emission in the green channel (488 nm) was filtered with a 525/50 bandpass, and the emission in the red channel (641 nm) was filtered with a 708/75 bandpass filter. Fluorescence images were obtained using an oil-immersion objective with a magnification of 100 × 1.4 CFI Plan Apo Oil.
Each experiment was repeated at least three times. The images acquired were adjusted using ImageJ2 software. Correlation coefficients were determined on entire images using JaCOP plugin.1 […]
MCF-7 cells were seeded in a 8-µwell Ibidi plate at 25’000 cells/well in DMEM (100 µL, 10% FCS) and allowed to adhere overnight. The medium was removed. The cells were washed with PBS (200 µL, 1x) and incubated with the peptide solution at 20 µM, 10 µM, 5 µM, or 2.5 µM in DMEM (200 µL, 1% FCS) for 1 h at 37 °C. The medium was removed, and the cells were washed with PBS (200 µL, 2x).
For imaging of mitochondria, MitoTracker Deep Red was added as described in the manuscript. […]
PBS (200 µL, 2x). For imaging of the nucleus, Hoechst333342 was added at (200 µL, 2 µM in DMEM, 1% FBS) followed by incubation of the cells at 37 °C for 5 min. The cells were washed with PBS (200 µL, 2x), and FluoroBrite medium (200 µL) was added. The live cells were monitored on the confocal microscope […]
MCF-7 cells were seeded in a 96-well plate at 7’500 cells/well in cell culture medium (200 µL, 10% FCS), and allowed to adhere overnight. The medium was removed, the cells were washed with PBS (100 µL, 1x) and incubated with the peptide solution at 20 µM, 10 µM, 5 µM, or 2.5 µM in DMEM (200 µL, 1% FCS) for 1 h at 37 °C. The medium was removed, and the cells were washed with PBS (100 µL, 1x). The MTT solution in DMEM (110 µL, 1.2 mM, 1% FBS) was added. The cells were incubated for 3 h at 37 °C. The supernatant was carefully removed, and DMSO (100 µL) was added. The plate was gently shaken for 30 min and the absorption of formazan solution at 570 nm was measured on the plate reader. […]

Molecule | Fold higher cellular uptake with additional C-terminal hydrophobic residue (FACS) ([1]; MCF-7, 5 μM) | Fold higher cellular uptake with additional C-terminal hydrophobic residue (FACS) ([1]; MCF-7, 10 μM) | Fold higher cellular uptake with additional C-terminal hydrophobic residue (FACS) ([1]; MCF-7, 20 μM) | Total cellular fluorescence after the 24 h rest compared with directly after 1 h incubation (FACS) [1] | Fold change of MitoTracker overlap with the peptide (M2) after 24 h rest [2] | Fold change of peptide overlap with MitoTracker (M1) after 24 h rest [2]
N=C(N)N[C@H]1C[C@@H](C(=O)N2C[C@@H](NC(=N)N)C[C@H]2C(=O)N[C@@H](CC2CCCCC2)C(=O)N2C[C@@H](NC(=N)N)C[C@H]2C(=O)N2C[C@@H](NC(=N)N)C[C@H]2C(=O)N[C@@H](CC2CCCCC2)C(=O)N2C[C@@H](NC(=N)N)C[C@H]2C(=O)N2C[C@@H](NC(=N)N)C[C@H]2C(=O)N[C@@H](CC2CCCCC2)C(N)=O)N(C(=O)[C@H](CC2CCCCC2)NC(=O)CCCCCNC(=O)c2ccc3c(c2)C(=O)OC32c3ccc(O)cc3Oc3cc(O)ccc32)C1 [(ChaZZ)3-Cha, CF-Ahx-(ChaZZ)3-Cha-NH2] ({5FAM-Ahx}-[Cha][Pro(cis-4-guanidino)][Pro(cis-4-guanidino)][Cha][Pro(cis-4-guanidino)][Pro(cis-4-guanidino)][Cha][Pro(cis-4-guanidino)][Pro(cis-4-guanidino)][Cha]-NH2) | 3 fold | 3 fold | 1.5 fold | constant or increased | up to 3.6 fold | more than 1.5 fold
CF-Ahx-(ChaZZ)2-Cha-NH2 | 2 fold | 4 fold | 6 fold | lower; also recorded: Significantly less fluorescence was observed after 24 h | 0.4 fold | 1.3 fold
CF-Ahx-(ChaZZ)3-NH2 | – | – | – | lower; also recorded: less fluorescence was observed after 24 h | – | > 2 fold
